Drawing on patent US12509459B2, “Inhibitors of NLRP3 inflammasome” (BioAge Labs, Inc., priority 2024, dated 2025), this text covers IC50 for 58 molecules.

NLRP3, sequence (Q96P20 whole entry): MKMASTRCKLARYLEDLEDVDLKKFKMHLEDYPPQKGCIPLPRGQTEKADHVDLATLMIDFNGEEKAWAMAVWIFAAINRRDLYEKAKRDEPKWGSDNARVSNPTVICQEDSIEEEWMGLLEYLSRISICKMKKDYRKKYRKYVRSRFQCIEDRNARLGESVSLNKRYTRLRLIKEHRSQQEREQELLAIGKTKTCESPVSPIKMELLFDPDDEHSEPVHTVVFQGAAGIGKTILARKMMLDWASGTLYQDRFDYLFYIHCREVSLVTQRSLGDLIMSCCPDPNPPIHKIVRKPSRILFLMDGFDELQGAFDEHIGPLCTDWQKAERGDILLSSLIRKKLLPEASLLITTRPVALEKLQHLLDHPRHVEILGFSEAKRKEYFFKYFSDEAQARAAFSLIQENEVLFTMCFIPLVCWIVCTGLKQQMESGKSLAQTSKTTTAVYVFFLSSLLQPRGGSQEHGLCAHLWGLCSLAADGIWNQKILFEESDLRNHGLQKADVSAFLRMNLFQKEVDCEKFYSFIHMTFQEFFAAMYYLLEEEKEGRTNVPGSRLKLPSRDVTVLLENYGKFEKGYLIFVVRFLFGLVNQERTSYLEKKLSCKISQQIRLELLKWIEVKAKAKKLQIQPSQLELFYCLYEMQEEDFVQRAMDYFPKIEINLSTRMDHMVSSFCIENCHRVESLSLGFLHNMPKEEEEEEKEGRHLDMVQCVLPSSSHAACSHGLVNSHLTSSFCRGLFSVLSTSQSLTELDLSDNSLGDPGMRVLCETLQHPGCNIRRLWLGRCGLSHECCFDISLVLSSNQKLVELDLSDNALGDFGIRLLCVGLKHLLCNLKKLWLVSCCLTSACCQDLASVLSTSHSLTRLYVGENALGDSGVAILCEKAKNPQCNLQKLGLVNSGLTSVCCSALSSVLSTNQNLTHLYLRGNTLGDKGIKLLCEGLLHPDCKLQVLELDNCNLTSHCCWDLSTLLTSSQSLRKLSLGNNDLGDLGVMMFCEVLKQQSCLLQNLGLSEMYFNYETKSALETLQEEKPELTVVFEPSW

The experiment has as its target NLRP3 (Homo sapiens, UniProt Q96P20). Briefly: THP-1 cell-based NLRP3 activation assay. Further details: endogenous in cells; host or cells: THP-1 cells (PMA-differentiated, LPS-primed, nigericin-stimulated). To be noted: PMA-differentiated THP-1 cells, LPS 100 ng/mL then 10 μM nigericin. As to the method:
THP-1 cells are cultured in complete media (CM) until they reach logarithmic growth and achieve a viability >90%. CM is composed of RPMI-1640 (+Glutamax)/10% fetal bovine serum/55 μM β-mercaptoethanol/pen/strep. Cells are spun down and resuspended to 1,000,000 cells/mL in CM containing either 20 nM or 500 nM PMA. 150,000 cells (150 μL) are then added to each well of a 96-well TC plate and incubated for either 24 hr or 3 hr, respectively, in a standard cell culture incubator (37° C.; 5% CO2). After this incubation, the plate is tilted and media carefully removed. 200 μL of CM containing 100 ng/mL LPS is then added to the wells and the cells incubated an additional 3 hrs. The media is again removed and replaced with Opti-Mem medium containing pre-determined dilutions of test compounds in replicate wells. After a 30 min incubation, 10 μM nigericin (final concentration) in Opti-Mem medium with the corresponding concentration of compound is added to the wells for an additional 1 hr. Positive control wells contain 10 μM nigericin in Opti-Mem in the absence of test compound, while negative control wells contain Opti-Mem only. […] Once supernatants are removed, the relative viability of adherent cells in the 96-well TC plate are determined using a CellTiter-Glo® luminescent cell viability assay (Promega).
`CCOc1cc(C(=O)N(C)[C@@H](CN(C)C)c2cncc3cn[nH]c23)ccc1-c1cccc(F)c1` [Compound 122]: the IC50 fell in the range of 500 to 1000 nM. Regarding `CCOc1cc(C(=O)N(C)[C@H](CN2CCC2)c2cncc3cn[nH]c23)ccc1-c1cccc(F)c1` [Compound 123], the IC50 fell in the range of 500 to 1000 nM. For `CCOc1cc(C(=O)N(C)[C@H](CN(C)C)c2cncc3cn[nH]c23)ccc1-c1cccc(Cl)c1` [Compound 125] the value was below 100 nM. The same measure for `CCOc1cc(C(=O)N(C)[C@@H](CN(C)C)c2cncc3cn[nH]c23)ccc1-c1cccc(Cl)c1` [Compound 126]: below 100 nM; for `CCOc1cc(C(=O)N(C)[C@H](CN(CC)CC)c2cncc3cn[nH]c23)ccc1-c1cccc(F)c1` [Compound 127]: below 100 nM. For `CCOc1cc(C(=O)N(C)[C@@H](CN(CC)CC)c2cncc3cn[nH]c23)ccc1-c1cccc(F)c1` [Compound 128] the value was below 100 nM; for `CCOc1cc(C(=O)N(C)[C@H](CN2CCCC2)c2cncc3cn[nH]c23)ccc1-c1cccc(F)c1` [Compound 129], 500 to 1000 nM; for `CCOc1cc(C(=O)N(C)[C@@H](CN2CCCC2)c2cncc3cn[nH]c23)ccc1-c1cccc(F)c1` [Compound 130], below 100 nM. The molecule `CCOc1cc(C(=O)N(C)[C@H](c2cncc3cn[nH]c23)C2CN(CC)C2)ccc1-c1cccc(Cl)c1` [Compound 131] showed an IC50 below 100 nM. The same measure for `CCOc1cc(C(=O)N(C)[C@H](c2cncc3cn[nH]c23)C2CN(C(C)C)C2)ccc1-c1ccccc1` [Compound 132]: 1000 to 15000 nM. The same measure for `CCOc1cc(C(=O)N(C)[C@H](c2cncc3cn[nH]c23)C2CN(C)C2)ccc1-c1ccccc1` [Compound 133]: below 100 nM; for `CCOc1cc(C(=O)N(C)[C@H](c2cncc3cn[nH]c23)C2CN(CC)C2)ccc1-c1ccccc1` [Compound 134]: 1000 to 15000 nM; for `CCOc1cc(C(=O)N(C)C(CCN(C)C)c2cccc3cn[nH]c23)ccc1-c1ccccc1` (stereo not shown) [Compound 135]: below 100 nM.

The molecule `CCOc1cc(C(=O)N(C)[C@H](CCNCCF)c2cncc3cn[nH]c23)ccc1-c1ccccc1` [Compound 136] came in with a 50% inhibitory concentration (IC50) below 100 nM. The same measure for `CCOc1cc(C(=O)N(C)[C@H](CCN(C)CCCF)c2cncc3cn[nH]c23)ccc1-c1cccc(F)c1` [Compound 137]: below 100 nM. The same measure for `CCOc1cc(C(=O)N(C)[C@H](CCN(C)CCCF)c2cncc3cn[nH]c23)ccc1-c1ccccc1` [Compound 138]: below 100 nM; for `CCOc1cc(C(=O)N(C)[C@H](CCNCCCF)c2cncc3cn[nH]c23)ccc1-c1cccc(Cl)c1` [Compound 139]: below 100 nM. The same measure for `CCOc1cc(C(=O)N(C)[C@H](CCN)c2cncc3cn[nH]c23)ccc1-c1ccccc1` [Compound 140]: below 100 nM; for `CCOc1cc(C(=O)N(C)[C@@H](c2cncc3cn[nH]c23)C2CNC2)ccc1-c1cccc(C#N)c1` [Compound 141]: below 100 nM; for `CCOc1cc(C(=O)N(C)[C@H](c2cncc3cn[nH]c23)C2CNC2)ccc1-c1cccc(C#N)c1` [Compound 142]: 1000 to 15000 nM.

As to `CCOc1cc(C(=O)N(C)[C@@H](c2cncc3cn[nH]c23)C2CN(C)C2)ccc1-c1cccc(C#N)c1` [Compound 143], the IC50 was below 100 nM.

Regarding `CCOc1cc(C(=O)N(C)[C@H](c2cncc3cn[nH]c23)C2CN(C)C2)ccc1-c1cccc(C#N)c1` [Compound 144], the IC50 was below 100 nM. The same measure for `CCOc1cc(C(=O)N(C)[C@H](CC[N+](C)(C)[O-])c2cncc3cn[nH]c23)ccc1-c1cccc(F)c1` [Compound 145]: 1000 to 15000 nM; for `CCOc1cc(C(=O)N(C)[C@H](CCN(C)C)c2cncc3cn[nH]c23)ccc1C1CC1` [Compound 146]: 100 to 500 nM; for `CCOc1cc(C(=O)N(C)[C@H](CCNC(=O)CC)c2cncc3cn[nH]c23)ccc1-c1cccc(F)c1` [Compound 147]: below 100 nM. The molecule `CCOc1cc(C(=O)N(C)[C@H](c2cncc3cn[nH]c23)C2CN(C)C2)ccc1-c1cccc(Cl)c1` [Compound 148] showed an IC50 below 100 nM. Take `CN(C)CC[C@H](c1cncc2cn[nH]c12)N(C)C(=O)c1ccc(-c2cccc(C#N)c2)c(OC2CC2)c1` [Compound 149]: the IC50 was below 100 nM. In turn, `CCOc1cc(C(=O)N(C)[C@@H](c2cncc3cn[nH]c23)C2CNC2)ccc1-c1ccccc1` [Compound 150] displayed a half-maximal inhibitory concentration (IC50) of 1000 to 15000 nM. For `CCOc1cc(C(=O)N(C)[C@H](c2cncc3cn[nH]c23)C2CNC2)ccc1-c1ccccc1` [Compound 151] the value was below 100 nM; for `CCOc1cc(C(=O)N(C)[C@@H](c2cncc3cn[nH]c23)[C@H]2CCNC2)ccc1-c1ccccc1` [Compound 152], 500 to 1000 nM; for `CCOc1cc(C(=O)N(C)[C@@H](c2cncc3cn[nH]c23)[C@H]2CCN(C)C2)ccc1-c1ccccc1` [Compound 153], below 100 nM. For `CCOc1cc(C(=O)N(C)[C@H](c2cncc3cn[nH]c23)[C@@H]2CCNC2)ccc1-c1ccccc1` [Compound 154] the value was below 100 nM; for `CCOc1cc(C(=O)N(C)[C@H](CCN(C)CCF)c2cncc3cn[nH]c23)ccc1-c1ccccc1` [Compound 155], below 100 nM; for `CCOc1cc(C(=O)N(C)[C@H](CCN(C)C)c2cncc3cn[nH]c23)ccc1C1CCC1` [Compound 156], below 100 nM. The same measure for `CCOc1cc(C(=O)N(C)[C@H](CCN(C)C)c2cncc3cn[nH]c23)ccc1C1CCCC1` [Compound 157]: below 100 nM; for `CCOc1cc(C(=O)N(C)[C@H](CCN(C)C)c2cncc3cn[nH]c23)ccc1C(C)C` [Compound 158]: 1000 to 15000 nM. Molecule `CCOc1cc(C(=O)N(C)[C@@H](c2cncc3cn[nH]c23)[C@@H]2CCNC2)ccc1-c1ccccc1` [Compound 159] had a half-inhibitory concentration (IC50) below 100 nM. `CCOc1cc(C(=O)N(C)[C@@H](c2cncc3cn[nH]c23)[C@@H]2CCN(C)C2)ccc1-c1ccccc1` [Compound 160] came in with a concentration for half-maximal inhibition (IC50) below 100 nM. The molecule `CCOc1cc(C(=O)N(C)[C@H](CCN(C)C)c2cncc3cn[nH]c23)ccc1C(C)CC` (stereo partly shown) [Compound 161] displayed an IC50 below 100 nM. The same measure for `CCOc1cc(C(=O)N(C)[C@@H](CCN(C)C)c2cncc3cn[nH]c23)ccc1-c1cccc(F)c1` [Compound 162]: below 100 nM; for `CCOc1cc(C(=O)N(C)[C@H](CC[N+](C)(C)[O-])c2cncc3cn[nH]c23)ccc1-c1cccc(Cl)c1` [Compound 163]: below 100 nM; for `CCOc1cc(C(=O)N(C)[C@H](CC[N+](C)(C)[O-])c2cncc3cn[nH]c23)ccc1-c1cccc(C)c1` [Compound 164]: below 100 nM. The same measure for `CN(C(=O)c1ccc(-c2cccc(F)c2)c(OC2CC2)c1)[C@H](CC[N+](C)(C)[O-])c1cncc2cn[nH]c12` [Compound 165]: below 100 nM; for `CCOc1cc(C(=O)N(C)[C@H](CC[N+](C)(C)[O-])c2cncc3cn[nH]c23)ccc1-c1ccccc1` [Compound 166]: below 100 nM.

Regarding `CCNCC[C@H](c1cncc2cn[nH]c12)N(C)C(=O)c1ccc(-c2cccc(F)c2)c(OCC)c1` [Compound 167], the 50% inhibitory concentration (IC50) is below 100 nM. For the molecule `CCOc1cc(C(=O)N(C)[C@@H](c2cncc3cn[nH]c23)C2CNC2)ccc1-c1cccc(C)c1` [Compound 168], the IC50 is below 100 nM. For `CCOc1cc(C(=O)N(C)[C@@H](c2cncc3cn[nH]c23)C2CN(CC)C2)ccc1-c1cccc(C)c1` [Compound 169] the value was below 100 nM; for `CCOc1cc(C(=O)N(C)[C@H](c2cncc3cn[nH]c23)C2CNC2)ccc1-c1cccc(C)c1` [Compound 170], below 100 nM; for `CCOc1cc(C(=O)N(C)[C@H](c2cncc3cn[nH]c23)C2CN(CC)C2)ccc1-c1cccc(C)c1` [Compound 171], below 100 nM. The same measure for `CCOc1cc(C(=O)N(C)[C@@H](c2cncc3cn[nH]c23)C2CN(CC)C2)ccc1-c1cccc(Cl)c1` [Compound 172]: below 100 nM. The same measure for `CCOc1cc(C(=O)N(C)[C@@H](c2cncc3cn[nH]c23)C2CN(CC)C2)ccc1-c1cccc(F)c1` [Compound 173]: below 100 nM.

The molecule `CCOc1cc(C(=O)N(C)[C@H](c2cncc3cn[nH]c23)C2CN(CC)C2)ccc1-c1cccc(F)c1` [Compound 174] yielded an IC50 below 100 nM. The same measure for `CCOc1cc(C(=O)N(C)[C@@H](c2cncc3cn[nH]c23)C2CN(C(C)C)C2)ccc1-c1cccc(F)c1` [Compound 175]: below 100 nM; for `CCOc1cc(C(=O)N(C)[C@H](c2cncc3cn[nH]c23)C2CN(C(C)C)C2)ccc1-c1cccc(F)c1` [Compound 176]: 100 to 500 nM; for `CCOc1cc(C(=O)N(C)[C@@H](c2cncc3cn[nH]c23)C2CN(CC)C2)ccc1-c1ccccc1` [Compound 177]: below 100 nM. The same measure for `CCOc1cc(C(=O)N(C)[C@@H](c2cncc3cn[nH]c23)C2CN(C)C2)ccc1-c1ccccc1` [Compound 178]: below 100 nM; for `CCOc1cc(C(=O)N(C)[C@@H](c2cncc3cn[nH]c23)C2CN(C(C)C)C2)ccc1-c1ccccc1` [Compound 179]: below 100 nM. As to `CCOc1cccc(C(=O)N(C)[C@H](CCN(C)C)c2cnc(CO)c3cn[nH]c23)c1` [Compound 180], the IC50 was 500 to 1000 nM.
